# Measurements reported in patent publication US20130324556A1, “Protease Activated Receptor 2 (PAR2) Antagonists” (priority 2011, published 2013).
# Where a name gives a salt, the structure may show the parent alone. Read-outs that look alike come from different tables or passages of the source.
# Biological target: T1, human PAR2 receptor (Homo sapiens, UniProt P55085)
# T1 construct: expressed in transfected cells; host or cells: 1321N1 cells
# T1 sequence (P55085 26-397): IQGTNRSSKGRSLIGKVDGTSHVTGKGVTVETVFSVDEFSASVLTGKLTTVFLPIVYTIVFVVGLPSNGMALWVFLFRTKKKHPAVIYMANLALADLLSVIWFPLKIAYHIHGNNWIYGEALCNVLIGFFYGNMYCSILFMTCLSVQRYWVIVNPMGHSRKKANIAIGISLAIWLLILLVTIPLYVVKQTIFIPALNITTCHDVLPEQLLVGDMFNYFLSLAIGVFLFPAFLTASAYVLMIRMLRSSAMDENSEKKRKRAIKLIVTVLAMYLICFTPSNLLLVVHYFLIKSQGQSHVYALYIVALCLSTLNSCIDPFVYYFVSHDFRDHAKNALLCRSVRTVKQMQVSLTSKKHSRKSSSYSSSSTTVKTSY
# Test: PAR2 antagonist activity, calcium flux FLIPR assay (trypsin challenge)
# Type: cell-based
# Experimental: The PAR2 receptor couples through the Gq signaling pathway and results in activation of calcium mobilization. The functional activity of test compounds was routinely tested by measuring the ability of compounds to antagonize PAR2 (trypsin challenge) activity in a dose dependent manner, in 1321N1 cells transfected with the human PAR2 receptor, using a calcium flux Fluorescent Imaging Plate Reader FLIPR assay.
# Briefly, test compounds were dissolved in DMSO to a concentration of 20 mM and stored in matrix screenmate racks. […] The compounds were then transferred to 384-well assay plates ready for use. […] The assay buffer used was HBSS buffer supplemented with 20 mM HEPES and 0.1% BSA (protease free), pH7.4. The loading/wash buffers were the same as the assay buffer.
# Sub-cultivations were performed every 2-3 d. […] After washing, the cells were loaded with Fluo-4 AM dye (Molecular probes) at 2 μM containing 0.48 μg/mL pluronic acid for 60 min at 37° C. under 5% CO2.
# A combined agonist/antagonist protocol was used to measure changes in intracellular calcium concentration. Compound (antagonist) was added to the cell plate using a Fluorometric Imaging Plate Reader (FLIPR) (Molecular Devices, Sunnyvale, Calif., USA). Basal fluorescence was recorded every second for 10 seconds prior to compound addition (10 μl) and fluorescence recorded every second for 1 min then every 6 seconds for a further 1 min. Trypsin (EC50 concentration) was then added using the FLIPR and fluorescence recorded as described above. Curve-fitting and parameter estimation were carried out using GraphPad Prism 4.0 (GraphPad Software Inc., San Diego, Calif.).
# [1] = 1321N1 cells transfected with the human PAR2 receptor, trypsin (EC50 concentration) challenge, calcium flux FLIPR, read-out: PAR2 IC50
compound,measurement,setting,value
"N=C(N)c1ccc(CNC(=O)N2CCC(Cc3ccccc3)CC2)cc1F [Example 45, 4-Benzyl-N-[(4-carbamimidoyl-3-fluorophenyl)meth-yl]piperidine-1-carboxamide hydrochloride]",IC50,[1],< 5 µM
"O=C(NCc1ccc2nc[nH]c2c1)N1CCC(Oc2ccc(F)cc2)CC1 [Example 55, N-(1H-1,3-Benzodiazol-6-ylmethyl)-4-(4-fluorophenoxy)piperidine-1-carboxamide]",IC50,[1],20 to 50 µM
"Nc1nc2ccc(CNC(=O)N3CCC(Cc4ccccc4)CC3)cc2[nH]1 [Example 62, N-[(2-Amino-1H-1,3-benzodiazol-6-yl)methyl]-4-benzylpiperidine-1-carboxamide]",IC50,[1],5 to 20 µM
"NCCCCCNC(=O)N1CCC(Cc2ccccc2)CC1 [Example 68, N-(5-Aminopentyl)-4-benzylpiperidine-1-carboxamide]",IC50,[1],20 to 50 µM
"NCc1ccc(CNC(=O)N2CCC(Cc3cccnc3)CC2)cc1 [Example 9, N-{[4-(Aminomethyl)phen-yl]methyl}-4-(pyridin-3-ylmethyl)piperidine-1-carboxamide]",IC50,[1],20 to 50 µM
"O=C(NCc1cc2cnccc2[nH]1)N1CCC(Cc2ccccc2)CC1 [Example 53, 4-Benzyl-N-{1H-pyrrolo[3,2-c]pyridin-2-ylmethyl}piperidine-1-carboxamide]",IC50,[1],20 to 50 µM
"O=C(NCc1ccc2c(c1)CNC2)N1CCC(Cc2ccncc2)CC1 [Example 65, N-(2,3-Dihydro-1H-isoindol-5-ylmethyl)-4-(pyridin-4-ylmethyl)piperidine-1-carboxamide dihydrochloride]",IC50,[1],50 to 100 µM
"COc1ccc(CC2CCN(C(=O)NCc3ccc(CN)cc3)CC2)cc1 [Example 3, 2,2,2-Trifluoroacetic acid; N-{[4-(aminomethyl)phenyl]methyl}-4-[(4-methoxyphenyl)methyl] piperidine-1-carboxamide]",IC50,[1],< 5 µM
"O=C(NCc1ccc(-c2ncc[nH]2)cc1)N1CCC(Cc2ccccc2)CC1 [Example 51, 4-Benzyl-N-{[4-(1H-imidazol-2-yl)phenyl]methyl}piperidine-1-carboxamide]",IC50,[1],20 to 50 µM
"NCc1ccc(CNC(=O)N2CCC(Oc3ccc(F)cc3)CC2)cc1 [Example 12, N-{[4-(Aminomethyl)phen-yl]methyl}-4-(4-fluorophenoxy)piperidine-1-carboxamide]",IC50,[1],5 to 20 µM
"NCc1ccc(CNC(=O)N2CCC(Cc3ccncc3)CC2)cc1 [Example 10, N-{[4-(Aminomethyl)phen-yl]methyl}-4-(pyridin-4-ylmethyl)piperidine-1-carboxamide]",IC50,[1],5 to 20 µM
"NCc1ccc(CNC(=O)N2CCC(C(=O)N3CCc4ccccc43)CC2)cc1 [Example 32, 2,2,2-Trifluoroacetic acid; N-{[4-(aminomethyl)phenyl]methyl}-4-[(2,3-dihydro-1H-indol-1-yl)carbonyl]piper-idine-1-carboxamide]",IC50,[1],50 to 100 µM
"O=C(NCc1ccc2nc[nH]c2c1)N1CCC(Nc2ccc(F)cc2)CC1 [Example 58, N-(1H-1,3-Benzodiazol-6-ylmethyl)-4-[(4-fluorophenyl)amino]piperidine-1-carboxamide]",IC50,,20 to 50 µM
"NCc1ccc(CNC(=O)N2CCC(C(=O)c3ccc(F)cc3)CC2)cc1 [Example 18, 2,2,2-Trifluoroacetic acid;- N-{[4-(aminomethyl)phenyl]methyl}-4-[(4-fluorophenyl)carbonyl] piperidine-1-carboxamide]",IC50,[1],5 to 20 µM
"NCc1ccc(CNC(=O)N2CCC(Nc3ccccc3Cl)CC2)cc1 [Example 17, N-{[4-(Aminomethyl)phen-yl]methyl}-4-[(2-chlorophenyl)amino]piper-idine-1-carboxamide dihydrochloride]",IC50,,< 5 µM
"NCc1ccc(CNC(=O)N2CCC(n3c(=O)[nH]c4ccccc43)CC2)cc1 [Example 33, N-{[4-(Aminomethyl)phen-yl]methyl}-4-(2-oxo-2,3-dihydro-1H-1,3-benzodiazol-1-yl)piperidine-1-carboxa-mide hydrochloride]",IC50,[1],20 to 50 µM
"Cc1ccc(CC2CCN(C(=O)NCc3ccc(CN)cc3)CC2)cc1 [Example 7, 2,2,2-Trifluoroacetic acid; N-{[4-(aminomethyl)phenyl]methyl}-4-[(4-methylphenyl)methyl] piperidine-1-carboxamide]",IC50,[1],5 to 20 µM
"CNC(=N)c1ccc(CNC(=O)N2CCC(Cc3ccccc3)CC2)cc1 [Example 37, 2,2,2-Trifluoroacetic acid; 4-benzyl-N-{[4-(N-methylcarbamimidoyl)phen-yl]methyl} piperidine-1-carboxamide]",IC50,[1],20 to 50 µM
"NCc1ccc(CNC(=O)N2CCC(Sc3ccccc3)CC2)cc1 [Example 16, N-{[4-(Aminomethyl)phen-yl]methyl}-4-(phenylsulfanyl)piperidine-1-carboxamide hydrochloride]",IC50,[1],5 to 20 µM
"N=C(N)c1ccc(CNC(=O)N2CCC(c3ccccc3)C2)cc1 (stereo not drawn) [Example 41, N-[(4-Carbamimidoylphen-yl)methyl]-3-phenylpyrrolidine-1-carboxamide hydrochloride]",IC50,[1],5 to 20 µM
"NCc1ccc(CNC(=O)N2CCC(Cc3ccccc3)CC2)cc1 [Example 1, (4-{[(4-Benzylpiperidin-1-yl)carbonylamino]methyl}phenyl)methanaminium chloride]",IC50,[1],5 to 20 µM
"NCc1ccc(CNC(=O)N2CCC(CCc3ccccc3)CC2)cc1 [Example 22, N-{[4-(Aminomethyl)phen-yl]methyl}-4-(2-phenylethyl)piperidine-1-carboxamide]",IC50,[1],20 to 50 µM
"NCc1ccc(CNC(=O)N2CCN(Cc3ccccc3)CC2)cc1 [Example 24, N-{[4-(Aminomethyl)phen-yl]methyl}-4-benzylpiperazine-1-carboxamide]",IC50,[1],5 to 20 µM
"NCc1ccc(CNC(=O)N2CCC(Oc3ccc(Cl)cc3)CC2)cc1 [Example 15, N-{[4-(Aminomethyl)phen-yl]methyl}-4-(4-chlorophenoxy)piperidine-1-carboxamide hydrochloride]",IC50,[1],20 to 50 µM
"NCc1ccc(CNC(=O)N2CCC(Cc3ccc(Cl)cc3)CC2)cc1 [Example 6, 2,2,2-Trifluoroacetic acid; N-{[4-(aminomethyl)phenyl]methyl}-4-[(4-chlorophenyl)methyl] piperidine-1-carboxamide]",IC50,[1],< 5 µM
"NCc1ccc(CNC(=O)N2CCN(c3ccccc3)CC2)cc1 [Example 27, N-{[4-(Aminomethyl)phen-yl]methyl}-4-phenyl piperazine-1-carboxamide dihydrochloride]",IC50,[1],20 to 50 µM
"NCc1ccc(CNC(=O)N2CCC(Cc3cccc(F)c3)CC2)cc1 [Example 4, 2,2,2-Trifluoroacetic acid; N-{[4-(aminomethyl)phenyl]methyl}-4-[(3-fluorophenyl)methyl] piperidine-1-carboxamide]",IC50,[1],< 5 µM
"N=C(N)c1ccc(CNC(=O)N2CCC(Cc3cccc(O)c3)CC2)cc1 [Example 47, N-[(4-Carbamimidoylphen-yl)methyl]-4-[(3-hydroxyphenyl)meth-yl]piperidine-1-carboxamide hydrochloride]",IC50,[1],< 5 µM
"N=C(N)c1ccc(CNC(=O)N2CCC(Cc3ccncc3)CC2)cc1 [Example 40, N-[(4-Carbamimidoylphen-yl)methyl]-4-(pyridin-4-ylmethyl)piperi-dine-1-carboxamide]",IC50,[1],< 5 µM
"NCc1ccc(CNC(=O)N2CCC(Cc3ccccn3)CC2)cc1 [Example 8, N-{[4-(Aminomethyl)phen-yl]methyl}-4-(pyridin-2-ylmethyl)piperidine-1-carboxamide]",IC50,[1],5 to 20 µM
